For data set [1], the system named is NZW rabbit eyes. Put plainly: ocular toxicity in Draize rabbit model. On Draize irritation class: key: N = Non-Irritating; PN = Practically Non-Irritating. In kind it is in vivo, New Zealand white (NZW) rabbits. On the set-up: key to Maximum Mean Total Score: Draize/MMTS ocular toxicity score. Here is the method:
CPE-C was evaluated for ocular toxicity using the standard Draize ocular scoring method which has been in use to determine the toxicity of cosmetics and chemicals since 1944 [39]. CPE-C ointments (3%, 2%, 1%, 0.5%) were administered topically 4 times daily for 4 days in uninfected, non-scarified NZW rabbit eyes (n = 2). Additionally, the 3% CPE-C concentration was also evaluated in rabbit eyes after corneal scarification. Overall, CPE-C, in concentrations up to 3% in an Aquaphor vehicle, appeared to be non-toxic to NZW rabbit eyes. […] There appeared to be no inhibition of corneal epithelial wound healing by the CPE-C in eyes that had undergone corneal epithelial scarification. Since the 3% CPE-C was the highest non-toxic concentration tested, this concentration was chosen for the in vivo antiviral efficacy testing in the Ad5/NZW rabbit ocular replication model.
CPE-C ointment (3%, 2%, 1%, 0.5%) was administered topically 4 times daily for 4 days in uninfected, non-scarified NZW rabbit eyes (n = 2). The CPE-C ointments were administered in approximately ½ inch strips per dose via a syringe with a 19-gauge cannula attached. The eyes were closed and gently rubbed to produce even distribution of antiviral over the entire ocular surface. The 3% CPE-C concentration was also evaluated in rabbit eyes after corneal scarification (general anesthesia with 40 mg/kg of ketamine and 4 mg/kg of xylazine administered intramuscularly and topical ocular anesthesia with proparacaine followed by 12 cross-hatched strokes with a #25 needle). All eyes were evaluated in a masked fashion for ocular toxicity using the Draize and MMTS scoring system on days 2, 3, and 4.

Data set [2] in a line: signs of systemic toxicity in the rabbit studies after topical ocular administration. Format: in vivo. Conditions: topical ocular administration in the doses given. From the text: Like 2′,3′-dideoxycytidine (ddC; zalcitabine), the most important unresolved issue affecting the future commercial development of CPE-C is systemic safety. The untimely deaths reported in 1995 of two cancer patients treated with intravenous CPE-C [35] raises serious concerns for the treatment of a self-limited non-blinding ocular infection. […] Therefore, the challenge for a pharmaceutical company will be to generate convincing and reassuring systemic safety data following topical administration. Given the negative clinical history associated with this compound, a persuasive package of unambiguous data will be required to convince appropriate governmental regulatory agencies to grant approval for the proposed ocular indication for CPE-C as the first topical anti-adenoviral drug.

On the set-up of data set [3]: method as in PMID 7554044. Conditions: treatment of solid tumors; intravenous; cited from earlier work.
On the set-up of data set [4]: method as in PMID 11431446. The conditions noted are these: topical ocular; cited from earlier work.
Where [5] appears, read: 1% ointment 4 times daily, non-scarified eyes, Day 2.
The mark [6] stands for this setting: 1% ointment 4 times daily, non-scarified eyes, Day 3.
Where [7] appears, read: 1% ointment 4 times daily, non-scarified eyes, Day 4.
Where [8] appears, read: 2% ointment 4 times daily, non-scarified eyes, Day 2.
Where [9] appears, read: 2% ointment 4 times daily, non-scarified eyes, Day 3.
The mark [10] stands for this setting: 2% ointment 4 times daily, non-scarified eyes, Day 4.
The mark [11] stands for this setting: 3% ointment 4 times daily, non-scarified eyes, Day 2.

`Nc1ccn([C@@H]2C=C(CO)[C@@H](O)[C@H]2O)c(=O)n1` [CPE-C, Cyclopentenylcytosine]: the “Maximum Mean Total Score” value in data set [1] (0.5% ointment 4 times daily, non-scarified eyes, Day 2) is 1.0; in data set [1] (0.5% ointment 4 times daily, non-scarified eyes, Day 3), 1.0; in data set [1] (0.5% ointment 4 times daily, non-scarified eyes, Day 4) it was 1.0; in data set [1] (setting [5]), 0.0; in data set [1] (setting [6]), 0.0; in data set [1] (setting [7]), 0.0. Further, the “Maximum Mean Total Score” value in data set [1] (setting [8]) is 0.0; in data set [1] (setting [9]), 0.0; in data set [1] (setting [10]), 0.0; in data set [1] (3% ointment 4 times daily, eyes with scarification, Day 2), 1.0; in data set [1] (3% ointment 4 times daily, eyes with scarification, Day 3) it was 1.0; in data set [1] (3% ointment 4 times daily, eyes with scarification, Day 4), 1.0. In addition, the “Maximum Mean Total Score” value in data set [1] (setting [11]) is given as 0.0; in data set [1] (3% ointment 4 times daily, non-scarified eyes, Day 3), 2.0; in data set [1] (3% ointment 4 times daily, non-scarified eyes, Day 4) it was 2.0. Further, the Draize irritation class entry in data set [1] (setting [5]), in data set [1] (setting [6]), in data set [1] (setting [7]), in data set [1] (setting [8]), in data set [1] (setting [9]) and in data set [1] (setting [10]) was “N” each time. The Draize irritation class entry in data set [1] (setting [11]) is reported as “N”. In addition, the “ocular irritation by Draize scoring” value in data set [1] (3% ointment, scarified eyes, 4 times daily for 4 days) is on record as “practically non-irritating”; in data set [1] (rabbit, in vivo), “non-irritating or practically non-irritating”. For the same compound, the “inhibition of corneal epithelial wound healing” value in data set [1] (eyes that had undergone corneal epithelial scarification) was “no inhibition”. Moreover, the “signs of systemic toxicity (decreased appetite, weight loss, wasting, death)” value in data set [2] is “no obvious signs of systemic toxicity”. The “patient deaths during clinical trials” value in data set [3] is recorded as “Two patient deaths from refractory hypotension”.
Turning to `Nc1ccn(C[C@@H](CO)OCP(=O)(O)O)c(=O)n1` [Cidofovir, cidofovir, reference compound], in data set [4], the “toxicity leading to discontinuation of development of topical cidofovir in the USA” value is reported as “epiphora due to secondary lacrimal canalicular blockade”.
